# Marks after values point to notes of the source that are not given here.
# Experiments:
# [1] = system: postmenopausal women with atrophic vaginitis; test: Vaginal health composite score (investigator rating), Example 3; format: in vivo; details: each treatment group (25 or 10 µg E2); Week 0 (baseline); scale 0-3
# Procedure: Efficacy was measured with composite scores of vaginal symptoms (dryness, soreness, and irritation) and vaginal health (secretions, epithelial integrity, surface thickness, and pH). Vaginal and urethral cytology analyses were also performed, and the vaginal maturation value was determined. Safety assessments included endometrial biopsies. […] All vaginal tablets were identical in appearance. Patients inserted 1 tablet daily for 14 days. Thereafter, patients inserted 1 tablet twice per week (Sunday and Thursday) for the remainder of the trial. Patients were to insert the tablets at the same time each day (preferably at bedtime). Patients were evaluated for efficacy and safety at Week - 4 (screening), Week 0 (baseline), and Weeks 2, 7, and 12. […] Differences within and between treatment groups were analyzed using an analysis of variance (ANOVA). […] Efficacy was measured with composite scores of vaginal symptoms (dryness, soreness, and irritation) and vaginal health (secretions, epithelial integrity, surface thickness, and pH). Vaginal and urethral cytology analyses were also performed, and the vaginal maturation value was determined. […] Patients were evaluated for efficacy and safety at Week - 4 (screening), Week 0 (baseline), and Weeks 2, 7, and 12. […] Differences within and between treatment groups were analyzed using an analysis of variance (ANOVA).
# [2] = system: superficial vaginal cells; test: Vaginal cytology, percentage of superficial cells, Example 3; format: in vivo, postmenopausal women
# Procedure: (§1) Efficacy was measured with composite scores of vaginal symptoms (dryness, soreness, and irritation) and vaginal health (secretions, epithelial integrity, surface thickness, and pH). Vaginal and urethral cytology analyses were also performed, and the vaginal maturation value was determined. Safety assessments included endometrial biopsies.
# (§2) All vaginal tablets were identical in appearance. Patients inserted 1 tablet daily for 14 days. Thereafter, patients inserted 1 tablet twice per week (Sunday and Thursday) for the remainder of the trial. Patients were to insert the tablets at the same time each day (preferably at bedtime). Patients were evaluated for efficacy and safety at Week - 4 (screening), Week 0 (baseline), and Weeks 2, 7, and 12.
# (§3) Vaginal and urethral cell samples were harvested and analyzed by independent cytologists to determine the percentages of parabasal, intermediate, and superficial cells. Maturation values were calculated according to the following equation: maturation value = 1.0 × [superficial cells, %] + 0.5 × [intermediate cells, %] [formula] Endometrial biopsies were performed at the end of the study in patients with intact uteri. The number of patients with abnormal biopsies was compared between treatment groups.
# FSH = test: Serum FSH concentration (immunoradiometric assay), Example 2; format: in vivo, postmenopausal women; details: 25 µg E2; Week 12
# Procedure: Maturation values of vaginal mucosal cells were assessed as an indicator of changes in the condition of the vaginal mucosa in response to treatment.
# After the screening visit, patients received no study treatment during the 4-week run-in period prior to the baseline visit. […] The vaginal tablets were identical in appearance. Patients inserted 1 tablet intravaginally, once daily for the initial 2 weeks of the study and then twice per week (Sunday and Thursday) for the remaining 10 weeks. Patients were instructed to use their medication at a consistent time each day, preferably in the morning.
# Upon presentation to the clinic for each visit, a vaginal cytology specimen was obtained. Patients then inserted the tablets. […] The blood samples obtained at 30 minutes before insertion, and at 6, 12, and 24 hours after insertion were also used to determine the FSH concentration via immunoradiometric assay.
# Data for area under the curve and maximal concentration were converted to a logarithmic scale, and changes from first dose (at the baseline visit) in the logarithmic values were estimated using 95% confidence intervals derived from paired t-tests. […] Differences within treatment groups in FSH concentration were determined using the Wilcoxon signed rank test based on changes from baseline in mean concentrations at weeks 2 and 12. […]
# endometrium = test: Endometrial biopsy at end of study, Example 3; format: in vivo, postmenopausal women; details: Week 12, N = 32
# Procedure: as §1, §3
# vaginal mucosa = test: Vaginal maturation value, Example 3; format: in vivo, postmenopausal women
# Procedure: as §1, §2, §3
# [3] = system: superficial vaginal and urethral cells; test: Superficial vaginal and urethral cells taken together, subjects per category, Example 3; format: in vivo, postmenopausal women; details: for percentage of subjects with both superficial vaginal and urethral cells less than or equal to 5% / subjects with percentages of both superficial vaginal and urethral cells less than or equal to 5%: Week 0; for percentage of subjects with increases in percentages of both superficial vaginal and urethral cells / subjects with increases in percentages of both superficial vaginal and urethral cells: Week 12
# Procedure: as §1, §2, §3
# [4] = system: superficial urethral cells; test: Urethral cytology, percentage of superficial cells, Example 3; format: in vivo, postmenopausal women
# Procedure: as §1, §2, §3
smiles,measurement,setting,value
"C[C@]12CC[C@@H]3c4ccc(O)cc4CC[C@H]3[C@@H]1CC[C@@H]2O [E2, 17β-estradiol]",vaginal health composite score,[1],approximately 1.7
same,"percentage of superficial vaginal cells, Mean","[2]; 10 µg E2, Week 0",3.1%
same,"percentage of superficial vaginal cells, Mean","[2]; 10 µg E2, Week 2",28.3%
same,"percentage of superficial vaginal cells, mean Change from baseline","[2]; 10 µg E2, Week 2",25.0^a %
same,"percentage of superficial vaginal cells, mean Change from baseline","[2]; 10 µg E2, Week 7",17.1%
same,"percentage of superficial vaginal cells, mean Change from baseline","[2]; 10 µg E2, Week 12",16.9^d %
same,"percentage of superficial vaginal cells, Mean","[2]; 25 µg E2, Week 0",4.0%
same,"percentage of superficial vaginal cells, Mean","[2]; 25 µg E2, Week 2",34.2%
same,"percentage of superficial vaginal cells, mean Change from baseline","[2]; 25 µg E2, Week 2",30.7^a %
same,"percentage of superficial vaginal cells, Mean","[2]; 25 µg E2, Week 7",28.2%
same,"percentage of superficial vaginal cells, mean Change from baseline","[2]; 25 µg E2, Week 7","23.9^b,c %"
same,"percentage of superficial vaginal cells, mean Change from baseline","[2]; 25 µg E2, Week 12",15.4%
same,patients with mean FSH concentrations below 35 mIU/mL,FSH,3 patients
same,"Endometrial Biopsy Result Abnormal, percentage of patients",endometrium; 10 µg E2,0.0%
same,"Endometrial Biopsy Result Normal, number of patients",endometrium; 10 µg E2,25
same,"Endometrial Biopsy Result Normal, percentage of patients",endometrium; 10 µg E2,78.1%
same,"Endometrial Biopsy Result Other, number of patients",endometrium; 10 µg E2,7
same,"Endometrial Biopsy Result Other, percentage of patients",endometrium; 10 µg E2,21.9%
same,"Endometrial Biopsy Result Abnormal, number of patients","endometrium; 10 µg E2, hyperplasia or carcinoma",0
same,"Endometrial Biopsy Result Abnormal, percentage of patients",endometrium; 25 µg E2,3.1%
same,"Endometrial Biopsy Result Normal, number of patients",endometrium; 25 µg E2,28
same,"Endometrial Biopsy Result Normal, percentage of patients",endometrium; 25 µg E2,87.5%
same,"Endometrial Biopsy Result Other, number of patients",endometrium; 25 µg E2,3
same,"Endometrial Biopsy Result Other, percentage of patients",endometrium; 25 µg E2,9.4%
same,maturation values,"vaginal mucosa; active treatment groups (25 or 10 µg E2), Week 12",approximately 60%
same,maturation values,"vaginal mucosa; each treatment group (25 or 10 µg E2), Week 0",approximately 45%
same,percentage of subjects with both superficial vaginal and urethral cells less than or equal to 5%,[3]; 10 µg E2,85%
same,subjects with percentages of both superficial vaginal and urethral cells less than or equal to 5%,[3]; 10 µg E2,53 subjects
same,percentage of subjects with increases in percentages of both superficial vaginal and urethral cells,[3]; 10 µg E2,71%
same,subjects with increases in percentages of both superficial vaginal and urethral cells,[3]; 10 µg E2,44 subjects
same,percentage of subjects with both superficial vaginal and urethral cells less than or equal to 5%,[3]; 25 µg E2,81%
same,subjects with percentages of both superficial vaginal and urethral cells less than or equal to 5%,[3]; 25 µg E2,57 subjects
same,percentage of subjects with increases in percentages of both superficial vaginal and urethral cells,[3]; 25 µg E2,74%
same,subjects with increases in percentages of both superficial vaginal and urethral cells,[3]; 25 µg E2,52 subjects
same,"percentage of superficial urethral cells, Mean","[4]; 10 µg E2, Week 0",2.5%
same,"percentage of superficial urethral cells, Mean","[4]; 10 µg E2, Week 2",16.7%
same,"percentage of superficial urethral cells, mean Change from baseline","[4]; 10 µg E2, Week 2",14.1^c %
same,"percentage of superficial urethral cells, Mean","[4]; 10 µg E2, Week 7",13.5%
same,"percentage of superficial urethral cells, mean Change from baseline","[4]; 10 µg E2, Week 7",10.7%
same,"percentage of superficial urethral cells, Mean","[4]; 10 µg E2, Week 12",9.5%
same,"percentage of superficial urethral cells, mean Change from baseline","[4]; 10 µg E2, Week 12",6.8%
same,"percentage of superficial urethral cells, Mean","[4]; 25 µg E2, Week 0",3.2%
same,"percentage of superficial urethral cells, Mean","[4]; 25 µg E2, Week 2",21.9%
same,"percentage of superficial urethral cells, mean Change from baseline","[4]; 25 µg E2, Week 2","19.2^a,b %"
same,"percentage of superficial urethral cells, Mean","[4]; 25 µg E2, Week 7",17.6%
same,"percentage of superficial urethral cells, mean Change from baseline","[4]; 25 µg E2, Week 7",14.2^d %
same,"percentage of superficial urethral cells, Mean","[4]; 25 µg E2, Week 12",11.2%
same,"percentage of superficial urethral cells, mean Change from baseline","[4]; 25 µg E2, Week 12",7.5%
